Results from patent US20250352395A1, “ANTIMICROBIAL HEMOSTATIC DEVICES AND METHODS OF USE AND MAKING” (TELEFLEX LIFE SCIENCES II LLC, priority 2024, published 2025).
Counter-ions that a name gives are not always drawn.

How the values were obtained:
[1] = tested on: whole sheep blood; assay: Tilt Tube Clot Test; format: biochemical; settings: Example 3
Procedure: Beakers containing the mixtures were placed on a magnetic stirrer with a stirring rod placed therein. The stir plate was set to 300 RPM. Once the mixture appeared uniform, 130 μL of the mixture was pipetted into each of the appropriately labeled tubes. 20 samples per concentration were used. The samples were tested in a Tilt Tube Clot Test method described below. A water bath was prepared to 37±1° C., and a test tube holder was placed therein. One mL of whole sheep blood at 37° C. was pipetted into each test tube. 150 μL of CaCl2 at 37° C. was then pipetted into a tube and a timer was then started (time “0”). Tubes were capped and gently shaken twice to ensure that the CaCl2 was completely mixed with the blood, and then placed in the water bath. Tubes were tilted by 90° at 15 second intervals, beginning when the timer reads 45 seconds. The time to clot was determined by visual inspection and the clot time was recorded. A clot is defined as a solid mass that may or may not adhere to bottom of test tube. The average clot time for control blood and hemostatic agents was then calculated. […] Samples from Tests 11-13 and Test 10 from Example 2 were then further separated into 0.5″ by 0.5″ squares and added to test tubes. A Tilt Tube Clot Test, as described in Example 1, was performed.

[2] = Appearance of coated gauze after drying at 80° C. for 24 hours; format: physicochemical; settings: exposure to 80° C. for 24 hours
Procedure: To coat the gauze, 20 mL of the coating mixture was poured into a flatbottom glass dish and then the gauze dipped into the mixture. The gauze was then lifted and allowed to drip. The coated gauze was placed on the wire rack and dried at 80° C. for 24 hrs. After drying was complete, samples were taken from the oven and remeasured for weight and moisture.
After coating, there were noticeable white clumps on the gauze.

[3] = Observation of salt dissolution in DI water during coating; format: physicochemical; settings: Example 3 coating mixture, 0.39 g in 100 mL DI water

SMILES | clot time ([1]; tested concentrations for CHA (300 and 50 μg/cm^2 targeted)) [s] | appearance after drying [2] | clot time ([1]; estimated 300 μg/cm^2, at some individual data points) | dissolution in DI water [3]
CC(=O)O.CC(=O)O.NC(=N\CCCCCC/N=C(N)/N=C(\N)Nc1ccc(Cl)cc1)/N=C(\N)Nc1ccc(Cl)cc1 [CHA, Chlorhexidine diacetate] | ≥ 150 | discolored, turning a yellow/orange | – | –
[H]/N=C(\N/C(=N/[H])NCCCCCCNC(=N)NC(=N)Nc1ccc(Cl)cc1)Nc1ccc(Cl)cc1 [CHD, Chlorhexidine dihydrochloride] | – | – | less than 150 seconds | did not dissolve
